# Tests used:
# SW480 cells = assay: Illumina microarray gene expression analysis; assay type: cell-based; settings: x at 25 μM only
# Method: A microarray analysis using an Illumina® array was performed in triplicate to investigate differential gene expression in cells treated with a Wnt pathway inhibitor. […] In vitro transcription reactions were incubated overnight (14 hr). Labeled cRNA was hybridized to Illumina® Human-6 v3 BeadChips (Illumina, San Diego, Calif.) at 58° C. overnight, according to the Illumina® Whole-Genome Gene Expression Protocol for BeadStation (Doc. #11226030.rev.C, Illumina Inc.). The hybridized BeadChip was stained with streptavidin-Cy3 (Amersham™, PA43001) for visualization and scanned with an Illumina® BeadArray Reader. The scanned images were imported into BeadStudio 3.1.3.0 (Illumina Inc) for extraction and quality control. A criterion of 0.5-fold change in expression was applied to the analysis. […] A list of differentially expressed genes of interest is given below in tables 1 and 2. […] Many known Wnt target genes (column 3) were influenced in treated cells. Some genes were influenced that are also affected in Ls174T colorectal cancer cells expressing an inducible dominant negative form of TCF-4 (column 4) (van de Wetering et al., Mol. Cell. Biol. (2008) 28(8), p. 2732-44). Other influenced genes that are important for cell cycle control and other genes correlated to regulated canonical Wnt signaling are also shown. The degree of modulation (column 5) is an indication of the degree of change between the non-treated and compound No. 1 treated samples.
# Rsk1(h) = biological target: T1, Rsk1(h) (Homo sapiens, UniProt Q15418); assay: Kinase screen; assay type: biochemical; settings: 0.1% DMSO control = 100%
# T1 construct: purchased Millipore (KinaseProfiler Service)
# PTP-1B(h) = biological target: T2, PTP-1B(h) (Homo sapiens, UniProt P18031); assay: Phosphatase screen; assay type: biochemical; settings: 0.1% DMSO control = 100%
# T2 construct: purchased Millipore (KinaseProfiler service)
# MST1(h) = biological target: T3, MST1(h) (Homo sapiens, UniProt Q13043); assay: Kinase screen; assay type: biochemical; settings: 0.1% DMSO control = 100%
# T3 construct: purchased Millipore (KinaseProfiler service)
# cSRC(h) = biological target: T4, cSRC(h) (Homo sapiens, UniProt P12931); assay: Kinase screen; assay type: biochemical; settings: 0.1% DMSO control = 100%
# T4 construct: purchased Millipore (KinaseProfiler service)
# RPTPm(h) = biological target: T5, RPTPm(h) (Homo sapiens, UniProt P28827); assay: Phosphatase screen; assay type: biochemical; settings: 0.1% DMSO control = 100%
# T5 construct: purchased Millipore (KinaseProfiler service)
# Fyn(h) = biological target: T6, Fyn(h) (Homo sapiens, UniProt P06241); assay: Kinase screen; assay type: biochemical; settings: 0.1% DMSO control = 100%
# T6 construct: purchased Millipore (KinaseProfiler service)
# T6 sequence (P06241 whole entry): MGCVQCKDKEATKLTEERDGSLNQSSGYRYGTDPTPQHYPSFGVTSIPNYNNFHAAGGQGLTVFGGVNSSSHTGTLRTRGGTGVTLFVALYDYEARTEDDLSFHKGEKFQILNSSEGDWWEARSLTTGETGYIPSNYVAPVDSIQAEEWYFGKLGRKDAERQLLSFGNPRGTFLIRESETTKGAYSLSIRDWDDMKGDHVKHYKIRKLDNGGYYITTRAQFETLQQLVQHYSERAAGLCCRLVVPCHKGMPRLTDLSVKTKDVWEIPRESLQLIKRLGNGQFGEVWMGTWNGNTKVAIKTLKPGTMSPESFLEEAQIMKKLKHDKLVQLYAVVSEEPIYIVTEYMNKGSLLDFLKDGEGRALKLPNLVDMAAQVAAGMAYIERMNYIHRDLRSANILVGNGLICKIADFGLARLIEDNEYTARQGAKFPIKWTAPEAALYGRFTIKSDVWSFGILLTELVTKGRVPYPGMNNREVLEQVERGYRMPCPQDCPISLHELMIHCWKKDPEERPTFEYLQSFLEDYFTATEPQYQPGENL
# T5 sequence (P28827 21-1452): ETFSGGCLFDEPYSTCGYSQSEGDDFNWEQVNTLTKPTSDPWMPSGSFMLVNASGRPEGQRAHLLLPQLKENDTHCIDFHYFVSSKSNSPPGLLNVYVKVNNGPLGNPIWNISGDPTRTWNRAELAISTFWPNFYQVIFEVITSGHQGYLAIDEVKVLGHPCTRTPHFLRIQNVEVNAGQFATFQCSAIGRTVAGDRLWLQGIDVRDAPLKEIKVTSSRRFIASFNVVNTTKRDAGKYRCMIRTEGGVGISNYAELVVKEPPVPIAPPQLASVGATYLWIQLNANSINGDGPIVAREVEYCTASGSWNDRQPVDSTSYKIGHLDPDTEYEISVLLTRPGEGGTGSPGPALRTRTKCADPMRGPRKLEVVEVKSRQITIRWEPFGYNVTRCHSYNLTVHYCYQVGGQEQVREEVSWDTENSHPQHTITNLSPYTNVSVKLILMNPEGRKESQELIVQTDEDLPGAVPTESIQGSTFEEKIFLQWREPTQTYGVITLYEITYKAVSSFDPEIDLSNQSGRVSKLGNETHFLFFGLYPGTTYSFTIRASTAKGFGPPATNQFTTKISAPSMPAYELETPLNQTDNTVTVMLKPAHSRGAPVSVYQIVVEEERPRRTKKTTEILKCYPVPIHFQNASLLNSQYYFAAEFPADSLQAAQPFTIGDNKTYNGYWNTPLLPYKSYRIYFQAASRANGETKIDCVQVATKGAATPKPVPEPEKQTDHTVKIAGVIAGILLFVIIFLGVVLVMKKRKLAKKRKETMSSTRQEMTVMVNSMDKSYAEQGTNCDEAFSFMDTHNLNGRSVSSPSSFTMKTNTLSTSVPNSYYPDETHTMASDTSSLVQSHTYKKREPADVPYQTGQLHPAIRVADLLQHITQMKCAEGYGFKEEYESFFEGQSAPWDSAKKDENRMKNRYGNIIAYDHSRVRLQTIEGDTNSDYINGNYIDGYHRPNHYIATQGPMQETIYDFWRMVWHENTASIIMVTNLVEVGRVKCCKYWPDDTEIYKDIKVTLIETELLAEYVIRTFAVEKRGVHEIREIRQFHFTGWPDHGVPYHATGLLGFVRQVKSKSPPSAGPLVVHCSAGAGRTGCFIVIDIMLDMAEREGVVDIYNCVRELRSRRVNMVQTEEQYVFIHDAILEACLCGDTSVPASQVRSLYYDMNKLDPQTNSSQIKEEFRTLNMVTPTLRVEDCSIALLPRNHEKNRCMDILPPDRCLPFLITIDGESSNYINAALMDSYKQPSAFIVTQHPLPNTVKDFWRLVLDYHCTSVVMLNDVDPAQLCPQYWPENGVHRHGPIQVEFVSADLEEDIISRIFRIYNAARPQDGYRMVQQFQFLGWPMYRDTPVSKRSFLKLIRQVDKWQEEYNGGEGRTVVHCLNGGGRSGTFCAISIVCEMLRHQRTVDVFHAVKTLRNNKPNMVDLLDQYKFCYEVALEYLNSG
# T4 sequence (P12931 whole entry): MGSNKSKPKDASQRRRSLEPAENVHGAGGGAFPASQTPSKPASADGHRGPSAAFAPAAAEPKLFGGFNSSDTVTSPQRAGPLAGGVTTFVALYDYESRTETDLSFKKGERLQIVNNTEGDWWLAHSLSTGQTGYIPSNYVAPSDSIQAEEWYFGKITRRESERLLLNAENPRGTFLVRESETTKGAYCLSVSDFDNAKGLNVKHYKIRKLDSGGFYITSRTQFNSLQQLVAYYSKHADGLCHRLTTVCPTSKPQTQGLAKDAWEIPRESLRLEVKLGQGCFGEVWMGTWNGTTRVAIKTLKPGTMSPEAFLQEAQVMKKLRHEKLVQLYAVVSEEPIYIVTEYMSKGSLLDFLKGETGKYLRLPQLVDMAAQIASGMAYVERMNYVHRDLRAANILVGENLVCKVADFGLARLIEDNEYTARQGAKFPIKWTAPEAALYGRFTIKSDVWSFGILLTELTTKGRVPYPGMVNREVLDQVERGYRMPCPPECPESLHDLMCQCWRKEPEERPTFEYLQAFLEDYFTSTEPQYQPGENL
# T3 sequence (Q13043 whole entry): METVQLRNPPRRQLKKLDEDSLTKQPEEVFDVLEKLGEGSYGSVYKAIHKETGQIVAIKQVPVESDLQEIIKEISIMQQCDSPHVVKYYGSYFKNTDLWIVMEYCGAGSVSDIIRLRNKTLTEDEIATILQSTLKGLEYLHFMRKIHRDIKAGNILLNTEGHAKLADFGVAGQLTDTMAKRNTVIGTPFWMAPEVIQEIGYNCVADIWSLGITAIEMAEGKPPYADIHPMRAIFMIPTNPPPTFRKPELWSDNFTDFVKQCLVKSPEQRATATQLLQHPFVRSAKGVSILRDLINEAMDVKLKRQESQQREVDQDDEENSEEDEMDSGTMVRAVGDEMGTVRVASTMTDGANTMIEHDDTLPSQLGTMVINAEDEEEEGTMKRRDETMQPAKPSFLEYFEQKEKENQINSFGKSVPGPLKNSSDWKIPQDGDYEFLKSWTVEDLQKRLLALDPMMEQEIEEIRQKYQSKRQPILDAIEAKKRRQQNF
# T2 sequence (P18031 whole entry): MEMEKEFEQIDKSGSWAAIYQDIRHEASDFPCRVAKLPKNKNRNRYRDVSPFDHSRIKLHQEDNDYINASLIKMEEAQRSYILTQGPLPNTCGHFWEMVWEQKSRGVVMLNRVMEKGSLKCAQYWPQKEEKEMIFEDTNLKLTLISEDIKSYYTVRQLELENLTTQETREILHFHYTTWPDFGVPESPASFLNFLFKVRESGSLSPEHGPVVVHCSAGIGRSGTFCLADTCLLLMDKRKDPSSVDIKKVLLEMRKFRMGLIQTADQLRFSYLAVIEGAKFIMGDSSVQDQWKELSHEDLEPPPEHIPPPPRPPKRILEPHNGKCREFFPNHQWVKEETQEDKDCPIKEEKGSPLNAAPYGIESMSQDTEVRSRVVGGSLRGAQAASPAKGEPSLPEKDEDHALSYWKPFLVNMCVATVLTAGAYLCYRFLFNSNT
# T1 sequence (Q15418 whole entry): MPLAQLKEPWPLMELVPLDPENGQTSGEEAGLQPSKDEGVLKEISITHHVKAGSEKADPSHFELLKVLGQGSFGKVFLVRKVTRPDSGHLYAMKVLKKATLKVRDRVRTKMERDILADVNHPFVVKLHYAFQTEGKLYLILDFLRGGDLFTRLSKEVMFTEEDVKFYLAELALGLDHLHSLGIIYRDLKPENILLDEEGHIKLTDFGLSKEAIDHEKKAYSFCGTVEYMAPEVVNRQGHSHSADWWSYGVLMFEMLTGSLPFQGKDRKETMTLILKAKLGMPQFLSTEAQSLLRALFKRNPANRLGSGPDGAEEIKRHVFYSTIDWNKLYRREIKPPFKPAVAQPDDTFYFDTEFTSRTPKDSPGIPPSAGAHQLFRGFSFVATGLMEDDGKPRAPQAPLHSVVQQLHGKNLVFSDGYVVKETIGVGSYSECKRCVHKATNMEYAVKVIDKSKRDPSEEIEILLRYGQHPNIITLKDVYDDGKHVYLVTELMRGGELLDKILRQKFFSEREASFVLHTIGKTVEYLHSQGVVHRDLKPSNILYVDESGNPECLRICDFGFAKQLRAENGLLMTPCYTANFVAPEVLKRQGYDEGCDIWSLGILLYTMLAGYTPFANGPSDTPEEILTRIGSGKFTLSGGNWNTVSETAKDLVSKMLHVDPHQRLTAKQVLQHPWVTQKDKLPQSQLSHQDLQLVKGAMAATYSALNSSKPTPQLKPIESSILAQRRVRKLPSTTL
compound,measurement,setting,value
COc1ccc(-n2c(SCc3nc(-c4ccc(C)cc4)no3)nnc2-c2ccncc2)cc1 [Compound 1],Degree of modulation: bone morphogenetic protein 7,SW480 cells,− (moderate down-regulation (log^2 ratio of between −0.5 and −1.0))
same,"Degree of modulation: c-abl oncogene 1, receptor tyrosine kinase",SW480 cells,− (moderate down-regulation (log^2 ratio of between −0.5 and −1.0))
same,Degree of modulation: cell division cycle 25 homolog C (S. pombe),SW480 cells,− (moderate down-regulation (log^2 ratio of between −0.5 and −1.0))
same,Degree of modulation: cell division cycle associated 8,SW480 cells,− (moderate down-regulation (log^2 ratio of between −0.5 and −1.0))
same,Degree of modulation: cyclin B2,SW480 cells,− (moderate down-regulation (log^2 ratio of between −0.5 and −1.0))
same,Degree of modulation: cyclin-dependent kinase 8,SW480 cells,− (moderate down-regulation (log^2 ratio of between −0.5 and −1.0))
same,"Degree of modulation: cyclin-dependent kinase inhibitor 1B (p27, Kip1)",SW480 cells,− (moderate down-regulation (log^2 ratio of between −0.5 and −1.0))
same,"Degree of modulation: cysteine-rich, angiogenic inducer, 61",SW480 cells,−−− (very strong down-regulation (log^2 ratio of between −1.5 and −2))
same,"Degree of modulation: disabled homolog 2, mitogen-responsive phosphoprotein (Drosophila)",SW480 cells,− (moderate down-regulation (log^2 ratio of between −0.5 and −1.0))
same,"Degree of modulation: dynein, axonemal, heavy chain 3",SW480 cells,− (moderate down-regulation (log^2 ratio of between −0.5 and −1.0))
same,"Degree of modulation: dynein, axonemal, heavy chain 5",SW480 cells,+ (moderate up-regulation (log^2 ratio of between 0.5 and 1.0))
same,"Degree of modulation: dynein, light chain, LC8-type 2",SW480 cells,− (moderate down-regulation (log^2 ratio of between −0.5 and −1.0))
same,"Degree of modulation: dynein, light chain, roadblock-type 1",SW480 cells,− (moderate down-regulation (log^2 ratio of between −0.5 and −1.0))
same,Degree of modulation: ephrin-A4,SW480 cells,− (moderate down-regulation (log^2 ratio of between −0.5 and −1.0))
same,Degree of modulation: ephrin-B2,SW480 cells,++ (strong up-regulation (log^2 ratio of between 1.0 and 1.5))
same,"Degree of modulation: epidermal growth factor receptor (erythroblastic leukemia viral (v-erb-b) oncogene homolog, avian)",SW480 cells,+ (moderate up-regulation (log^2 ratio of between 0.5 and 1.0))
same,Degree of modulation: ets variant gene 3,SW480 cells,−− (strong down-regulation (log^2 ratio of between −1.0 and −1.5))
same,Degree of modulation: fibroblast growth factor 20,SW480 cells,− (moderate down-regulation (log^2 ratio of between −0.5 and −1.0))
same,Degree of modulation: forkhead box F1,SW480 cells,+ (moderate up-regulation (log^2 ratio of between 0.5 and 1.0))
same,Degree of modulation: forkhead box M1,SW480 cells,− (moderate down-regulation (log^2 ratio of between −0.5 and −1.0))
same,Degree of modulation: frizzled homolog 2 (Drosophila),SW480 cells,−− (strong down-regulation (log^2 ratio of between −1.0 and −1.5))
same,Degree of modulation: interleukin 8,SW480 cells,++ (strong up-regulation (log^2 ratio of between 1.0 and 1.5))
same,Degree of modulation: low density lipoprotein receptor-related protein 5-like,SW480 cells,+ (moderate up-regulation (log^2 ratio of between 0.5 and 1.0))
same,"Degree of modulation: matrix metallopeptidase 7 (matrilysin, uterine)",SW480 cells,− (moderate down-regulation (log^2 ratio of between −0.5 and −1.0))
same,Degree of modulation: met proto-oncogene (hepatocyte growth factor receptor),SW480 cells,+ (moderate up-regulation (log^2 ratio of between 0.5 and 1.0))
same,Degree of modulation: mitogen-activated protein kinase kinase kinase kinase 1,SW480 cells,− (moderate down-regulation (log^2 ratio of between −0.5 and −1.0))
same,Degree of modulation: nitric oxide synthase 3 (endothelial cell),SW480 cells,+++ (very strong up-regulation (log^2 ratio of between 1.5 and 2))
same,"Degree of modulation: origin recognition complex, subunit 1-like (yeast)",SW480 cells,− (moderate down-regulation (log^2 ratio of between −0.5 and −1.0))
same,Degree of modulation: p53 and DNA damage regulated 1,SW480 cells,− (moderate down-regulation (log^2 ratio of between −0.5 and −1.0))
same,Degree of modulation: paired box 6,SW480 cells,− (moderate down-regulation (log^2 ratio of between −0.5 and −1.0))
same,Degree of modulation: paired related homeobox 2,SW480 cells,− (moderate down-regulation (log^2 ratio of between −0.5 and −1.0))
same,Degree of modulation: patched homolog 1 (Drosophila),SW480 cells,− (moderate down-regulation (log^2 ratio of between −0.5 and −1.0))
same,Degree of modulation: pituitary tumor-transforming 1,SW480 cells,− (moderate down-regulation (log^2 ratio of between −0.5 and −1.0))
same,"Degree of modulation: plasminogen activator, urokinase",SW480 cells,+ (moderate up-regulation (log^2 ratio of between 0.5 and 1.0))
same,"Degree of modulation: plasminogen activator, urokinase receptor",SW480 cells,+ (moderate up-regulation (log^2 ratio of between 0.5 and 1.0))
same,Degree of modulation: runt-related transcription factor 2,SW480 cells,− (moderate down-regulation (log^2 ratio of between −0.5 and −1.0))
same,Degree of modulation: sal-like 4 (Drosophila),SW480 cells,+ (moderate up-regulation (log^2 ratio of between 0.5 and 1.0))
same,Degree of modulation: sex comb on midleg-like 1 (Drosophila),SW480 cells,− (moderate down-regulation (log^2 ratio of between −0.5 and −1.0))
same,Degree of modulation: snail homolog 2 (Drosophila),SW480 cells,++ (strong up-regulation (log^2 ratio of between 1.0 and 1.5))
same,Degree of modulation: topoisomerase (DNA) II alpha 170 kDa,SW480 cells,− (moderate down-regulation (log^2 ratio of between −0.5 and −1.0))
same,"Degree of modulation: tumor necrosis factor receptor superfamily, member 19",SW480 cells,− (moderate down-regulation (log^2 ratio of between −0.5 and −1.0))
same,activity at 10 µM,Rsk1(h),108%
same,activity at 10 µM,PTP-1B(h),105%
same,activity at 10 µM,MST1(h),106%
same,activity at 10 µM,cSRC(h),100%
same,activity at 10 µM,RPTPm(h),103%
same,activity at 10 µM,Fyn(h),83%
